Test results taken from article PMC5908784, “Extracellular loops 2 and 3 of the calcitonin receptor selectively modify agonist binding and efficacy” (Biochemical Pharmacology, 2018).
Substitutions are numbered along the chain they refer to. Where a SMILES comes first, the peptide text is derived from it. Bridges are numbered along the chain shown (N, C = ends).

Tests used:
Test in all cases: Heterologous whole cell competition binding
Conditions in all cases: heterologous competition of 125I-sCT(8-32), whole cells, mean ± S.E.M., SEM
[1] = target: T1, hCTR F285A (Homo sapiens, UniProt P30988, F285A)
T1 construct: expressed in transfected cells
T1 sequence (P30988 25-474 F285A): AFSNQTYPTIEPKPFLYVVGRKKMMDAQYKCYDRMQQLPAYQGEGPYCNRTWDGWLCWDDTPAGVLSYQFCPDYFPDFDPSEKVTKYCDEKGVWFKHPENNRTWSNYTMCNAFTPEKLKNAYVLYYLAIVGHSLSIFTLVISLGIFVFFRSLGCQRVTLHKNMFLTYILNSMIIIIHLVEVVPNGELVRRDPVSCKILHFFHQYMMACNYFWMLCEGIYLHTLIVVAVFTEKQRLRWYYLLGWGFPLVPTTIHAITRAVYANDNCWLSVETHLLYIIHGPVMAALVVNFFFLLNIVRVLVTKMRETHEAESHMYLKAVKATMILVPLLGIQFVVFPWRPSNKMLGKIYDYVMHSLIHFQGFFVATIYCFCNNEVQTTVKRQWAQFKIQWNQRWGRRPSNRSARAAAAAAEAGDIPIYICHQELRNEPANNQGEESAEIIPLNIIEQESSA
In short: (§1)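 Overnight competition on intact cells; free ligand washed off; gamma counting. pKi via Cheng-Prusoff correction for radioligand occupancy.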

[2] = target: T2, hCTR H296A (Homo sapiens, UniProt P30988, H296A)
T2 construct: c-Myc (N); expressed in transfected cells
T2 sequence (P30988 25-474 H296A): T1 sequence (P30988 25-474 F285A) with A261F, H272A
In short: as §1

[3] = target: T3, hCTR I279A (Homo sapiens, UniProt P30988, I279A)
T3 construct: expressed in transfected cells
T3 sequence (P30988 25-474 I279A): T1 sequence (P30988 25-474 F285A) with I255A, A261F
In short: as §1

[4] = target: T4, hCTR N288A (Homo sapiens, UniProt P30988, N288A)
T4 construct: expressed in transfected cells
T4 sequence (P30988 25-474 N288A): T1 sequence (P30988 25-474 F285A) with A261F, N264A
In short: as §1

[5] = target: T5, hCTR S292A (Homo sapiens, UniProt P30988, S292A)
T5 construct: expressed in transfected cells
T5 sequence (P30988 25-474 S292A): T1 sequence (P30988 25-474 F285A) with A261F, S268A
In short: as §1

Ki [1]: 12 nM
Ki [2]: 8.51 nM
Ki [3]: 14.8 nM
Ki [4]: 9.33 nM
Ki [5]: 2.88 nM
SMILES: CSCC[C@H](NC(=O)CNC(=O)[C@H](CO)NC(=O)[C@H](Cc1ccccc1)NC(=O)[C@H](CCCNC(=N)N)NC(=O)[C@H](Cc1c[nH]cn1)NC(=O)[C@H](Cc1ccccc1)NC(=O)[C@H](CC(N)=O)NC(=O)[C@H](CC(N)=O)NC(=O)[C@H](CC(C)C)NC(=O)[C@H](CC(N)=O)NC(=O)[C@H](CCCNC(=N)N)NC(=O)[C@H](Cc1c[nH]c2ccccc12)NC(=O)[C@H](Cc1ccc(O)cc1)NC(=O)[C@H](C)NC(=O)[C@H](CO)NC(=O)[C@H](CC(C)C)NC(=O)[C@@H](NC(=O)[C@@H]1CSSC[C@H](N)C(=O)N[C@@H](CO)C(=O)N[C@@H](CC(N)=O)C(=O)N[C@@H](CC(C)C)C(=O)N[C@@H](CO)C(=O)N[C@@H]([C@@H](C)O)C(=O)N1)C(C)C)C(=O)NCC(=O)N[C@@H](Cc1ccccc1)C(=O)NCC(=O)N1CCC[C@H]1C(=O)N[C@@H](CCC(=O)O)C(=O)N[C@H](C(=O)N1CCC[C@H]1C(N)=O)[C@@H](C)O [pCT] (H-CSNLSTCVLSAYWRNLNNFHRFSGMGFGPETP-NH2; disulfide 1-7)
